This passage reports IC50 results from US7846959B2, “Raf modulators and methods of use” (Exelixis, Inc., priority 2004, dated 2010).

One may read the IC50 as the concentration that gives 50% inhibition.

Test [1] has as its target c-Raf (Homo sapiens, UniProt P04049). Briefly: Luciferase-coupled chemiluminescence kinase assay (ATP consumption), c-Raf. In kind it is biochemical. The settings on record: read-out: cRaf-1 (inhibition indicated as IC50). The gist of the method:
(§1)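 Raf enzyme ([…]) pre-incubated with compound 30 minutes at room temperature in 20 mM Tris pH 7.5, 10 mM MgCl2, 0.03% TX-100, 1 mM DTT, then reacted with ATP for 3 hrs at ambient temperature. Remaining ATP quantified by luciferase-luciferin chemiluminescence, consumption held at 25-60%; IC50 reported.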

The target in test [2] is B-Raf (Homo sapiens, UniProt P15056). Briefly: Luciferase-coupled chemiluminescence kinase assay (ATP consumption), B-Raf. It counts as biochemical. As to conditions: read-out: bRaf (inhibition indicated as IC50). The procedure, abridged: as §1
Sequence of B-Raf (P15056 whole entry): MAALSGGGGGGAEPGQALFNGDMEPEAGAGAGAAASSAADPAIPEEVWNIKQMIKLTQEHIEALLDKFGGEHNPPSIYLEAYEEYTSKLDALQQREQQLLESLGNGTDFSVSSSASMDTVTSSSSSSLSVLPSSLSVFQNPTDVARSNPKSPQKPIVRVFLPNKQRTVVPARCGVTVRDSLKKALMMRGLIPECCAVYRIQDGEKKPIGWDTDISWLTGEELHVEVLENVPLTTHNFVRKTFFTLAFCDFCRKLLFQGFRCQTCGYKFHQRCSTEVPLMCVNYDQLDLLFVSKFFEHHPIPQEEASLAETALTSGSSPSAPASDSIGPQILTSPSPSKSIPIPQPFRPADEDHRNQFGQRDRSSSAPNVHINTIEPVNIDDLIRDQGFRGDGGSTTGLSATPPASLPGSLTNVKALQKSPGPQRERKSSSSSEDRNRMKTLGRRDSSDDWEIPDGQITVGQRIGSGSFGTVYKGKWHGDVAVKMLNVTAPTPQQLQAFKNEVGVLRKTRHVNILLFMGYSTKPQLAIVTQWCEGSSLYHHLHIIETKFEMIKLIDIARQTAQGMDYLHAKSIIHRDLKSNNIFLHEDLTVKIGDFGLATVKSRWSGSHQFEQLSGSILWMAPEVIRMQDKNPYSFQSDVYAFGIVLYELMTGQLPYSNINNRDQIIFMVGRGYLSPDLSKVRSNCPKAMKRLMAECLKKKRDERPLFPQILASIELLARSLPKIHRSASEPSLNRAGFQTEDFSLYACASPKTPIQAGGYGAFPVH

Sequence of c-Raf (P04049 whole entry): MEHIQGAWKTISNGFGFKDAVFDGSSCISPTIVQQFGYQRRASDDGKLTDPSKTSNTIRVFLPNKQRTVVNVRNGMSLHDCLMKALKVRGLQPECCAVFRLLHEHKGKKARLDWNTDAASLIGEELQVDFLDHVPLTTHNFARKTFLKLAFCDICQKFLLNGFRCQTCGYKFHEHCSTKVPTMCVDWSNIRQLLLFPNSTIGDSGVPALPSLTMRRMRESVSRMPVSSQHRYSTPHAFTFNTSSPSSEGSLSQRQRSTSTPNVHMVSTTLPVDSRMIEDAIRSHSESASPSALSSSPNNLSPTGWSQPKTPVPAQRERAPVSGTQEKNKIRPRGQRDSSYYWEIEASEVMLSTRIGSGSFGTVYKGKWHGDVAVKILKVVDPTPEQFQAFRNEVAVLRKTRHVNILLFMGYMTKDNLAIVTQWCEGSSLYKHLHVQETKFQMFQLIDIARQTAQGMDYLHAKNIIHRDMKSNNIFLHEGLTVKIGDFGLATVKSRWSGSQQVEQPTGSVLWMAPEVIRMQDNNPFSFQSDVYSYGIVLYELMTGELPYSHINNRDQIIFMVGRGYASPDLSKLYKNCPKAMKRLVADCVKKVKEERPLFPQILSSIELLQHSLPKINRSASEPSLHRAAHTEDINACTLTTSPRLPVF

On to `O=C(CCCN1CCCCC1)Nc1nc2cc(C3(O)c4ccccc4C(=O)N3c3cccc(Cl)c3F)ccc2[nH]1` (stereo not shown) [Entry 288, N-{5-[2-(3-chloro-2-fluorophenyl)-1-hydroxy-3-oxo-2,3-dihydro-1H-isoindol-1-yl]-1H-benzimidazol-2-yl}-4-piperidin-1-ylbutanamide], for which the IC50 in test [1] and in test [2] was less than 100 nM throughout.

Regarding `COC(=O)Nc1nc2ccc(C(=O)c3ccccc3NC(=O)c3ccccc3)cc2[nH]1` [Entry 289, methyl [6-({2-[(phenylcarbonyl)amino]phenyl}carbonyl)-1H-benzimidazol-2-yl]carbamate], the half-inhibitory concentration (IC50) in test [1] and in test [2] was 1000 to 10000 nM in each case.

For `COC(=O)Nc1nc2cc(C3(O)c4ccccc4C(=O)N3c3cccc(N4CCOCC4)c3)ccc2[nH]1` (stereo not shown) [Entry 290, methyl {5-[1-hydroxy-2-(3-morpholin-4-ylphenyl)-3-oxo-2,3-dihydro-1H-isoindol-1-yl]-1H-benzimidazol-2-yl}carbamate], the IC50 in test [1] and in test [2] was 1000 to 10000 nM in each case.

`CN(C)CCOC(=O)Nc1nc2ccc(C3(O)c4ccccc4C(=O)N3c3cccc(Cl)c3F)cc2[nH]1` (stereo not shown) [Entry 291, 2-(dimethylamino)ethyl {6-[2-(3-chloro-2-fluorophenyl)-1-hydroxy-3-oxo-2,3-dihydro-1H-isoindol-1-yl]-1H-benzimidazol-2-yl}carbamate]: the IC50 in test [1] and in test [2] was less than 100 nM each time.

As to `CCN(CC)CCOC(=O)Nc1nc2cc(C3(O)c4ccccc4C(=O)N3c3cccc(Cl)c3F)ccc2[nH]1` (stereo not shown) [Entry 292, 2-(diethylamino)ethyl {5-[2-(3-chloro-2-fluorophenyl)-1-hydroxy-3-oxo-2,3-dihydro-1H-isoindol-1-yl]-1H-benzimidazol-2-yl}carbamate], the IC50 in test [1] and in test [2] was less than 100 nM in each case.

As to `O=C(Nc1nc2cc(C3(O)c4ccccc4C(=O)N3c3cccc(Cl)c3F)ccc2[nH]1)OCCN1CCCCC1` (stereo not shown) [Entry 293, 2-piperidin-1-ylethyl {5-[2-(3-chloro-2-fluorophenyl)-1-hydroxy-3-oxo-2,3-dihydro-1H-isoindol-1-yl]-1H-benzimidazol-2-yl}carbamate], the IC50 in test [1] and in test [2] was less than 100 nM throughout.

In the case of `O=C(Nc1nc2ccc(C3(O)c4ccccc4C(=O)N3c3cccc(Cl)c3F)cc2[nH]1)OCCCN1CCCCC1` (stereo not shown) [Entry 294, 3-piperidin-1-ylpropyl {6-[2-(3-chloro-2-fluorophenyl)-1-hydroxy-3-oxo-2,3-dihydro-1H-isoindol-1-yl]-1H-benzimidazol-2-yl}carbamate], the half-maximal inhibitory concentration (IC50) in test [1] and in test [2] was 1000 to 10000 nM in each case.

Take `O=C(Nc1nc2ccc(C3c4ccccc4C(=O)N3c3cccc(Br)c3)cc2[nH]1)OCCN1CCCCC1` (stereo not shown) [Entry 295, 2-piperidin-1-ylethyl {6-[2-(3-bromophenyl)-3-oxo-2,3-dihydro-1H-isoindol-1-yl]-1H-benzimidazol-2-yl}carbamate]: the IC50 in test [1] is less than 100 nM; in test [2], 100 to 1000 nM.

Consider `COC(=O)Nc1nc2ccc(C3(O)c4c(F)ccc(F)c4C(=O)N3c3cccc(Br)c3)cc2[nH]1` (stereo not shown) [Entry 296, methyl {6-[2-(3-bromophenyl)-4,7-difluoro-1-hydroxy-3-oxo-2,3-dihydro-1H-isoindol-1-yl]-1H-benzimidazol-2-yl}carbamate], for which the IC50 in test [1] and in test [2] was less than 100 nM each time.

Turning to `CN(CCOC(=O)Nc1nc2cc(C3(O)c4ccccc4C(=O)N3c3cccc(Cl)c3F)ccc2[nH]1)Cc1ccccc1` (stereo not shown) [Entry 297, 2-[methyl(phenylmethyl)amino]ethyl {5-[2-(3-chloro-2-fluorophenyl)-1-hydroxy-3-oxo-2,3-dihydro-1H-isoindol-1-yl]-1H-benzimidazol-2-yl}carbamate], the IC50 in test [1] and in test [2] was less than 100 nM each time.

On to `COC(=O)Nc1nc2cc(C3(O)c4ccccc4C(=O)N3c3cccc(N4CCCC4)c3)ccc2[nH]1` (stereo not shown) [Entry 298, methyl {5-[1-hydroxy-3-oxo-2-(3-pyrrolidin-1-ylphenyl)-2,3-dihydro-1H-isoindol-1-yl]-1H-benzimidazol-2-yl}carbamate], for which the IC50 in test [1] and in test [2] was 1000 to 10000 nM throughout.

Consider `COC(=O)Nc1nc2cc(C3(O)c4ccccc4C(=O)N3c3cc(Cl)cc(F)c3F)ccc2[nH]1` (stereo not shown) [Entry 299, methyl {5-[2-(5-chloro-2,3-difluorophenyl)-1-hydroxy-3-oxo-2,3-dihydro-1H-isoindol-1-yl]-1H-benzimidazol-2-yl}carbamate], for which the IC50 in test [1] and in test [2] was less than 100 nM in each case.

Take `COC(=O)Nc1nc2cc(C3(O)c4ccccc4C(=O)N3CC3CCCN3)ccc2[nH]1` (stereo not shown) [Entry 300, methyl {5-[1-hydroxy-3-oxo-2-(pyrrolidin-2-ylmethyl)-2,3-dihydro-1H-isoindol-1-yl]-1H-benzimidazol-2-yl}carbamate]: the IC50 in test [1] and in test [2] was 1000 to 10000 nM in each case.

In the case of `COC(=O)Nc1nc2cc(C3(O)c4ccccc4C(=O)N3CC3CCNC3)ccc2[nH]1` (stereo not shown) [Entry 301, methyl {5-[1-hydroxy-3-oxo-2-(pyrrolidin-3-ylmethyl)-2,3-dihydro-1H-isoindol-1-yl]-1H-benzimidazol-2-yl}carbamate], the IC50 in test [1] and in test [2] was 1000 to 10000 nM throughout.

On to `CN1CCCCC1COC(=O)Nc1nc2ccc(C3(O)c4ccccc4C(=O)N3c3cccc(Cl)c3F)cc2[nH]1` (stereo not shown) [Entry 302, (1-methylpiperidin-2-yl)methyl {6-[2-(3-chloro-2-fluorophenyl)-1-hydroxy-3-oxo-2,3-dihydro-1H-isoindol-1-yl]-1H-benzimidazol-2-yl}carbamate], for which the IC50 in test [1] and in test [2] was less than 100 nM each time.

Regarding `CN1CCC[C@H]1COC(=O)Nc1nc2ccc(C3(O)c4ccccc4C(=O)N3c3cccc(Cl)c3F)cc2[nH]1` (stereo partly drawn) [Entry 303, [(2S)-1-methylpyrrolidin-2-yl]methyl {6-[2-(3-chloro-2-fluorophenyl)-1-hydroxy-3-oxo-2,3-dihydro-1H-isoindol-1-yl]-1H-benzimidazol-2-yl}carbamate], the IC50 in test [1] and in test [2] was less than 100 nM throughout.

As to `O=C(Nc1nc2ccc(C3(O)c4ccccc4C(=O)N3c3cccc(Cl)c3F)cc2[nH]1)OCC1CCCN2CCCCC12` (stereo not shown) [Entry 304, octahydro-2H-quinolizin-1-ylmethyl {6-[2-(3-chloro-2-fluorophenyl)-1-hydroxy-3-oxo-2,3-dihydro-1H-isoindol-1-yl]-1H-benzimidazol-2-yl}carbamate], the IC50 in test [1] and in test [2] was less than 100 nM each time.

On to `COC(=O)Nc1nc2cc(C3(O)c4ccccc4C(=O)N3c3cc(Br)ccc3C)ccc2[nH]1` (stereo not shown) [Entry 305, methyl {5-[2-(5-bromo-2-methylphenyl)-1-hydroxy-3-oxo-2,3-dihydro-1H-isoindol-1-yl]-1H-benzimidazol-2-yl}carbamate], for which the IC50 in test [1] and in test [2] was less than 100 nM throughout.

`O=C1c2ccccc2C(O)(c2ccc3[nH]c(=O)[nH]c3c2)N1c1cccc(Cl)c1F` (stereo not shown) [Entry 306, 5-[2-(3-chloro-2-fluorophenyl)-1-hydroxy-3-oxo-2,3-dihydro-1H-isoindol-1-yl]-1,3-dihydro-2H-benzimidazol-2-one]: the IC50 in test [1] and in test [2] was 1000 to 10000 nM in each case.

`COC(=O)Nc1nc2cc(C3(O)c4ccccc4C(=O)N3c3cc(F)cc(Br)c3F)ccc2[nH]1` (stereo not shown) [Entry 307, methyl {5-[2-(3-bromo-2,5-difluorophenyl)-1-hydroxy-3-oxo-2,3-dihydro-1H-isoindol-1-yl]-1H-benzimidazol-2-yl}carbamate]: the IC50 in test [1] and in test [2] was less than 100 nM in each case.

As for `O=C(Nc1nc2ccc(C3(O)c4ccccc4C(=O)N3c3cccc(Cl)c3F)cc2[nH]1)OCCN1CCOCC1` (stereo not shown) [Entry 308, 2-morpholin-4-ylethyl {6-[2-(3-chloro-2-fluorophenyl)-1-hydroxy-3-oxo-2,3-dihydro-1H-isoindol-1-yl]-1H-benzimidazol-2-yl}carbamate], the IC50 in test [1] and in test [2] was less than 100 nM in each case.

For `CN1CCCC(COC(=O)Nc2nc3ccc(C4(O)c5ccccc5C(=O)N4c4cccc(Cl)c4F)cc3[nH]2)C1` (stereo not shown) [Entry 309, (1-methylpiperidin-3-yl)methyl {6-{2-(3-chloro-2-fluorophenyl)-1-hydroxy-3-oxo-2,3-dihydro-1H-isoindol-1-yl]-1H-benzimidazol-2-yl}carbamate], the IC50 in test [1] and in test [2] was less than 100 nM in each case.

For `COC(=O)Nc1nc2cc(C3(O)c4ccccc4C(=O)N3c3cc(Cl)ccc3OC)ccc2[nH]1` (stereo not shown) [Entry 310, methyl (5-{2-[5-chloro-2-(methyloxy)phenyl]-1-hydroxy-3-oxo-2,3-dihydro-1H-isoindol-1-yl}-1H-benzimidazol-2-yl)carbamate], the IC50 in test [1] and in test [2] was less than 100 nM throughout.

Consider `COC(=O)Nc1nc2cc(C3(O)c4ccccc4C(=O)N3c3cccc(N(C)C4CCCCC4)c3)ccc2[nH]1` (stereo not shown) [Entry 311, methyl [5-(2-{3-[cyclohexyl(methyl)amino]phenyl}-1-hydroxy-3-oxo-2,3-dihydro-1H-isoindol-1-yl)-1H-benzimidazol-2-yl]carbamate], for which the 50% inhibitory concentration (IC50) in test [1] and in test [2] was less than 100 nM throughout.

On to `O=C(Nc1nc2ccc(C3(O)c4ccccc4C(=O)N3c3cccc(Cl)c3F)cc2[nH]1)OCC1CC2CCC(C1)N2` (stereo not shown) [Entry 312, 8-azabicyclo[3.2.1]oct-3-ylmethyl {6-[2-(3-chloro-2-fluorophenyl)-1-hydroxy-3-oxo-2,3-dihydro-1H-isoindol-1-yl]-1H-benzimidazol-2-yl}carbamate], for which the IC50 in test [1] and in test [2] was less than 100 nM in each case.

In the case of `COC(=O)Nc1nc2ccc(C3CCC(=O)N3c3cccc(Br)c3)cc2[nH]1` (stereo not shown) [Entry 313, methyl {6-[1-(3-bromophenyl)-5-oxopyrrolidin-2-yl]-1H-benzimidazol-2-yl}carbamate], the concentration for half-maximal inhibition (IC50) in test [1] and in test [2] was 1000 to 10000 nM throughout.
